Three compounds from ChEMBL document CHEMBL1132339, “Lipophilic 4-isoxazolyl-1,4-dihydropyridines: synthesis and structure-activity relationships” (J Med Chem, 1999) can be followed below.

pKi: −log10 of the molar value.

Voltage-dependent L-type calcium channel subunit alpha-1C, sequence (P22002 whole entry): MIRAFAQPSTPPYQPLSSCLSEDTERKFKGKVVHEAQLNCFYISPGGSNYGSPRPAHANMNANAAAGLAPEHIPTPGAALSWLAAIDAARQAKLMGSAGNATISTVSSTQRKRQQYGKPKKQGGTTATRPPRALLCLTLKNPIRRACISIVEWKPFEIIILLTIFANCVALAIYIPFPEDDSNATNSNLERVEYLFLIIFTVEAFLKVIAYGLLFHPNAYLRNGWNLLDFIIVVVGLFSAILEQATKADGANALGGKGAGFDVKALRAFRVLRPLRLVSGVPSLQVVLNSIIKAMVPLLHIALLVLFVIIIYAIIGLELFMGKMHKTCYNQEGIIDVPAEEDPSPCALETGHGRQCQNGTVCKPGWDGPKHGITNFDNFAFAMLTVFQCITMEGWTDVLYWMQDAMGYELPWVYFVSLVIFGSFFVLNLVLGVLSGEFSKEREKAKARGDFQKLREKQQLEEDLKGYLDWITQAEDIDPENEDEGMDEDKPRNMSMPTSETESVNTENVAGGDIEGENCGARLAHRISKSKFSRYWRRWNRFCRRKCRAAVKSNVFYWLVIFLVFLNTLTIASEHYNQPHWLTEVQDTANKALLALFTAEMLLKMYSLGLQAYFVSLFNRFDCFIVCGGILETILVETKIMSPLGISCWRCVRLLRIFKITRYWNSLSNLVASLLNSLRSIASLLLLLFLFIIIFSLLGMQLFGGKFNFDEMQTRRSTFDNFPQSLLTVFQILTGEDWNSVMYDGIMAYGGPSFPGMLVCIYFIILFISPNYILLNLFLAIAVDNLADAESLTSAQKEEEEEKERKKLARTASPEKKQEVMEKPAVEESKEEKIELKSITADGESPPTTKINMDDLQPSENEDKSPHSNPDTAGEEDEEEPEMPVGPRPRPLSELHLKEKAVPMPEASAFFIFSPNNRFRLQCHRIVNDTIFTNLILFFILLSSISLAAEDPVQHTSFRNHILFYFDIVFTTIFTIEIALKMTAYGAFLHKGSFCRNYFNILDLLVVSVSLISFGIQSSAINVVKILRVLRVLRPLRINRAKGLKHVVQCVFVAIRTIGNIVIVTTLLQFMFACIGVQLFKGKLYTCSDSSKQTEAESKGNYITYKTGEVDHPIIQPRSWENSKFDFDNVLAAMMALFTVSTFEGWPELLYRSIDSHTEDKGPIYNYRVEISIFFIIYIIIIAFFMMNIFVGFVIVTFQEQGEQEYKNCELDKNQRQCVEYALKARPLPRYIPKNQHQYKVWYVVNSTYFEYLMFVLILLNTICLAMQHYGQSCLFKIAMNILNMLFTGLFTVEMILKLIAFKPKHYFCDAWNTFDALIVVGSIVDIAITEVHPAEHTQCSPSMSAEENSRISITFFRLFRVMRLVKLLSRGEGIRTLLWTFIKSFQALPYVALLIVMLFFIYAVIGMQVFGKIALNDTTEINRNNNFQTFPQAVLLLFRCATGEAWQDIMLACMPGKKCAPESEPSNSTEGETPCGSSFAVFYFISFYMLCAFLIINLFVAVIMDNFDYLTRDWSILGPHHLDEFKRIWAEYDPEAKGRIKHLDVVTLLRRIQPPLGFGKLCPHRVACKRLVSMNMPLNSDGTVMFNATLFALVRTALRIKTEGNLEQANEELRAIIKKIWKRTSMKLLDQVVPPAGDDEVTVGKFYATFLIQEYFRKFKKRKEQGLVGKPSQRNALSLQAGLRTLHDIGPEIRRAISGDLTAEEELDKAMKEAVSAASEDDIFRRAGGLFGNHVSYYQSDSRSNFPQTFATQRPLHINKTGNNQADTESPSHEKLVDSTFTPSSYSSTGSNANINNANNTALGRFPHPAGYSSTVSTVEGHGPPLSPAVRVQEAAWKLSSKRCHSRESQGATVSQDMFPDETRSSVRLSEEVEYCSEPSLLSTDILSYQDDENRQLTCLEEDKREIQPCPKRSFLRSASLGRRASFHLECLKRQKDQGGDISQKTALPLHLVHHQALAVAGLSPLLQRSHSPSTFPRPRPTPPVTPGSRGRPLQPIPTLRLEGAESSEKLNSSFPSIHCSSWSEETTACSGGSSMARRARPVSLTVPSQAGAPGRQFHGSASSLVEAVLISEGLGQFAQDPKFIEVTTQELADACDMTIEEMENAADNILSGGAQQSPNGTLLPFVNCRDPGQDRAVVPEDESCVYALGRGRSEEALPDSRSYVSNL

The assay concerns the target Voltage-dependent L-type calcium channel subunit alpha-1C (Rattus norvegicus, UniProt P22002). Nature of the assay: Displacement of [3H](+)-PN200-110 binding from calcium channels of rat cardiac membranes. The format is cell membranes, Membrane. (Loss of bound radioactivity is the signal in a displacement assay; it reports binding, not function.)
On to `CCOC(=O)C1=C(C)N=C(C)/C(=C(/O)OCC)C1c1c(C)noc1CCc1cccc2ccccc12` (stereo not drawn), for which the negative logarithm of the Ki (pKi) was 8.67.
Next, `CCOC(=O)C1=C(C)N=C(C)/C(=C(/O)OCC)C1c1c(C)noc1CCc1ccccc1-c1ccccc1` (stereo not drawn): 7.34.
In the case of `CCOC(=O)C1=C(C)N=C(C)/C(=C(/O)OCC)C1c1c(C)noc1CCc1ccc2ccccc2c1` (stereo not drawn) it was 7.97.

Usually pKi stands for −log10 of the Ki, conventionally taken in molar units.
